Measured values from US20220192985A1, “METHOD OF PRODUCTION OF A COMPOSITE OF YEAST-DERIVED BETA GLUCAN PARTICLE WITH INCORPORATED POORLY-WATER-SOLUBLE LOW-MOLECULAR-WEIGHT COMPOUND, PHARMACEUTICAL PREPARATION AND USE THEREOF” (VYSOKA SKOLA CHEMICKO-TECHNOLOGICKA V PRAZE, priority 2019, published 2022).

Assays:
Type in all cases: physicochemical
[1] = Dissolution test of (IBU+ASA)/GP, crude IBU and crude ASA in 10 mM HCl (pH 2.0); settings: 10 mM HCl pH 2.0, room temperature; compared with encapsulated drug
Method: Dissolution tests (FIG. 11) were performed for crude micronized ibuprofen, crude acetylsalicylic acid and for the produced (IBU+ASA)/GP composite particles, in powder form and using 10 mM HCl (pH 2.0) as dissolution medium. For that, 20.0 mg of crude drug (IBU or ASA) or 100.0 mg of (IBU+ASA)/GP composite, were added to 200 mL of continuously stirred dissolution medium (for a maximum concentration of 0.1 mg of drug per ml of medium). The mixtures were continuously stirred at 250 rpm and room temperature in a 250-mL beaker. At pre-defined time-points (ranging from 0 to 60 min), 500 μL of sample were collected, centrifuged and filtered (200-nm pore size filtration membrane), and the concentration was evaluated by high-performance liquid chromatography (HPLC) with UV detection (Agilent), coupled with C18 column (100 mm×4.6 mm, 5 μm) and mobile phase consisting of 0.01 M ammonium phosphate buffer (pH 2.0) and acetonitrile, in gradient according to the Table 2: […]

[2] = Powder rheology shear test (FT4), Example 8; settings: pre-sheared at 3 kPa; ATO/GP mass ratio 25%
Method: (§1) The moisture (water content) of the samples was firstly measure using a moisture analysis balance (simple test, 100° C., 5 mg initial mass, infrared drying). […] The samples were then dried for 24 hours in the oven with very-slowly-moving fan at 30° C. Finally, a shear test (FIG. 15) was performed on the samples a Powder Rheometer FT4 (pre-sheared at 3 kPa consolidation and initial mass of 0.6-0.7 g).

[3] = Moisture (water content), moisture analysis balance; settings: first measurement, 100° C. infrared drying
Method: as §1

[4] = Powder rheology shear test (FT4), Comparative Example 9; settings: pre-sheared at 3 kPa, mass ratio 10%
Method: Shear tests were performed on the samples a Powder Rheometer FT4 (pre-sheared at 3 kPa consolidation and initial mass of 0.6-0.7 g). The tests were carried out per duplicate under laboratory conditions (21.2±0.7° C. and 35.1±2.0% relative humidity).

Row | dissolution rate [1] | AIF (Angle of Internal Friction) [2] | Cohesion [2] | moisture (water content) [3] | Cohesion ([4]; 21.2±0.7° C., 35.1±2.0% relative humidity) | AIF (Angle of Internal Friction) [4] | Category (flowability) [4] | FF (Flow Function) [4] | SMILES
1 | slower dissolution rates | – | – | – | – | – | – | – | CC(=O)Oc1ccccc1C(=O)O [crude ASA, acetylsalicylic acid]
2 | – | 45.3 ° | 0.879 kPa | 2.5 % wt. | 0.81 ± 0.21 kPa | 51.24 ± 0.82 ° | Cohesive | 2.43 ± 0.48 | CC(C)c1c(C(=O)Nc2ccccc2)c(-c2ccccc2)c(-c2ccc(F)cc2)n1CC[C@@H](O)C[C@@H](O)CC(=O)O [Crude ATO, atorvastatin]
3 | slower dissolution rates | – | – | – | – | – | – | – | CC(C)Cc1ccc(C(C)C(=O)O)cc1 (stereo not drawn) [crude IBU, ibuprofen]
